# Test results as given in PMC9616902, “Chemical space docking enables large-scale structure-based virtual screening to discover ROCK1 kinase inhibitors” (Nature Communications, 2022).
# Like-named read-outs stand apart in the source and are kept apart here.
# Target: T1, Human ROCK1 protein (amino acids 1–477) (Homo sapiens, UniProt Q13464)
# T1 construct: purchased Carna Biosciences 01-109
# Test: ROCK1 HTRF KinEASE-STK S2 biochemical activity assay
# Conditions: for S0 / Sinf / nHill: curve fit parameter; for Ki: average +/- standard deviation of three measurements, 3 μM ATP
# Description: Human ROCK1 protein (amino acids 1–477 from accession number NP_05397.1) was purchased from Carna Biosciences (Cat# 01-109). This sequence contains the catalytic domain of the protein, and the biochemical activity was measured by the HTRF KinEASE-STK S2 Kit (Cisbio, Cat# 62ST2PEB) according to the manufacturer’s protocol. To determine the IC50, compounds were first dispensed by the Echo Liquid Handler (Labcyte) into white 384-well plates (PerkinElmer, Cat# 6008289). A total of 3 μL of 2x ROCK1 enzyme solution was added to the compounds, followed by a 10 min incubation at room temperature. Then, 2x ATP and STK S2 peptide solution were added to initiate the one-hour enzyme reaction at room temperature. The final condition of the reaction was 1.5 nM Rock1, 3 μM ATP, 0.5 μM STK S2 peptide in 50 mM HEPES pH7.2, 10 mM MgCl2, 0.1% BGG, 0.005% Brij-35, 1 mM DTT. The reaction was quenched by adding 6 μL of the detection mixture that contained Streptavidin XL665 and STK Antibody-Cryptate (Cisbio) and incubated for 1 hour at room temperature. The HTRF (665 nm/620 nm) signal was read on the PHERAstar reader (BMG Labtech). All measurements were done in triplicate.
# [1] = 2021-01-17 ROCK1 HTRF (n=1) 665/620, no unit printed (values equal the uM IC50 of the 7th table x 1e-6), read-out: qAC50
# [2] = 2021-01-17 ROCK1 HTRF (n=1) 665/620 Activity [%]
# [3] = 2021-01-18 ROCK1 (n=3) 665/620, no unit printed (values equal the uM IC50 of the 7th table x 1e-6), read-out: qAC50
# [4] = 2021-01-18 ROCK1 (n=3) 665/620 Activity [%]
# [5] = 2021-01-18 ROCK1 HTRF (n=2) 665/620, no unit printed (values equal the uM IC50 of the 7th table x 1e-6), read-out: qAC50
# [6] = 2021-01-18 ROCK1 HTRF (n=2) 665/620 Activity [%]
# [7] = Supplementary Figure 4 source data, unit inferred, read-out: hit IC50
# T1 sequence (Q13464 1-477): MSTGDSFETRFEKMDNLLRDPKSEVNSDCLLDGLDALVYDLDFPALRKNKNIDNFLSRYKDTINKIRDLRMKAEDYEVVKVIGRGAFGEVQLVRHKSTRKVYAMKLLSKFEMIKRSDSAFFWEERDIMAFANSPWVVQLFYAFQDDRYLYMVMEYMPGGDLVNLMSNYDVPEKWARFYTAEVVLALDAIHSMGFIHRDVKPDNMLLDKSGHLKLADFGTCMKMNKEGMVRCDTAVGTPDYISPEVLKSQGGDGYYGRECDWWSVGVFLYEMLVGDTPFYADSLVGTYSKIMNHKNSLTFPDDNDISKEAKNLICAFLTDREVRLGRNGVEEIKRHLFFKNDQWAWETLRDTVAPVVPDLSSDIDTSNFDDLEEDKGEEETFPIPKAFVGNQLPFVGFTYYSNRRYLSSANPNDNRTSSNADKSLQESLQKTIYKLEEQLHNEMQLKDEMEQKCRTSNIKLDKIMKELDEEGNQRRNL
IC50 [1],S0 [2],Sinf [2],nHill (2021-01-17 ROCK1 HTRF (n=1)),IC50 [3],S0 [4],Sinf [4],nHill (2021-01-18 ROCK1 (n=3)),IC50 [5],S0 [6],Sinf [6],nHill (2021-01-18 ROCK1 HTRF (n=2)),IC50 [7],Ki,SMILES
0.248 µM,0.4458%,-96.8224%,1.0903,0.14 µM,-2.655%,-93.6754%,1.532,0.157 µM,3.31%,-94.0095%,1.2951,0.182 µM,87 ± 28 nM,CC(NC(=O)c1ccc(-c2cn[nH]c2)cc1)C1CC1c1ccccc1 (mixture of isomers) [Compound 6]
0.173 µM,3.131%,-99.2397%,1.067,0.171 µM,-0.4047%,-100.142%,0.9507,0.17 µM,3.5105%,-98.3773%,1.136,0.171 µM,82 ± 1 nM,CSc1cccc(F)c1CNC(=O)c1ccc(-c2cn[nH]c2)cc1 [Compound 5]

# Continued, compound first:
SMILES,IC50 [1],S0 [2],Sinf [2],nHill (2021-01-17 ROCK1 HTRF (n=1)),IC50 [3],S0 [4],Sinf [4],nHill (2021-01-18 ROCK1 (n=3)),IC50 [5],S0 [6],Sinf [6],nHill (2021-01-18 ROCK1 HTRF (n=2)),IC50 [7],Ki
CC(Cc1ccc(F)cc1F)NC(=O)c1ccc(-c2cn[nH]c2)cc1 (racemic) [Compound 3],0.22 µM,1.865%,-99.1673%,1.058,0.121 µM,-2.06%,-95.7048%,1.245,0.136 µM,-2.159%,-97.6218%,1.01,0.159 µM,76 ± 26 nM
COCc1cccc(CC(=O)Nc2ccc(-c3cn[nH]c3)cc2)c1 [Compound 1],0.0793 µM,-0.5714%,-100.2%,1.046,0.0806 µM,-1.802%,-99.1388%,1.109,0.0814 µM,-5.692%,-99.1049%,1.139,0.08 µM,38 ± 1 nM
CC(CNC(=O)c1ccc(-c2cn[nH]c2)cc1)N1CCc2ccccc21 (stereo not drawn) [Compound 2],0.108 µM,-2.075%,-98.9577%,1.042,0.101 µM,1.158%,-99.9466%,0.9439,0.1 µM,-0.7898%,-98.8967%,0.9788,0.103 µM,49 ± 2 nM
O=C(NCC1(Cc2ccccc2)CC1)c1ccc(-c2cn[nH]c2)cc1 [Compound 4],0.197 µM,-5.337%,-98.9033%,1.05,0.147 µM,-5.138%,-96.0861%,1.483,0.15 µM,-6.676%,-95.9487%,1.644,0.165 µM,79 ± 13 nM
